# In publication PMC6523382 (Pharmaceutics, 2019):
# Read-outs that look alike come from different tables or passages of the source.
# What was measured:
# [1] = Ginsenoside concentrations in rat plasma after oral RGE; type: in vivo
# Protocol: Ginsenoside concentrations in RGE and plasma samples were analyzed using an Agilent 6470 triple quadrupole liquid chromatography–tandem mass spectrometry (LC–MS/MS) system (Agilent, Wilmington, DE, USA) equipped with an Agilent 1260 high performance liquid chromatography (HPLC) system, according to a previously published method. […] Aliquots (20 μL) of the supernatant were injected into the LC–MS/MS system for the analysis of ginsenosides. […] The solvent gradient program was as follows: (1) 0–0.5 min, 72% B; (2) 0.5–8.5 min, 84% B; (3) 8.5–19.0 min, 72%.
# Quantification of a separated ginsenoside peak was performed at m/z 1131.6 → 365.1 for Rb1 (TR (retention time) 5.0 min), m/z 1101.6 → 335.1 for Rb2 (TR 6.4 min) and Rc (TR 5.2 min), m/z 969.9 → 789.5 for Rd (TR 8.2 min) and Re (TR 1.6 min), m/z 824 → 643.6 for Rg1 (TR = 1.7 min), m/z 807.5 → 365.1 for Rg3 (TR 12.3 min), m/z 661.5 → 203.1 for Rh1 (TR 3.2 min) and F1 (TR 3.9 min), m/z 587.4 → 407.4 for Rh2 (TR 11.5 min), m/z 807.5 → 627.5 for F2 (TR 5.3 min), m/z 645.5 → 203.1 for compound K (TR 9.5 min), m/z 425.4 → 109.1 for protopanaxadiol (TR 18.8 min), m/z 441.3 → 109.1 for protopanaxatriol (TR 2.9 min), and m/z 336.1 → 320 for berberine (internal standard, IS) (TR 3.7 min) in the positive ionization mode with collision energy (CE) of 15–65 eV.
# [2] = system: rat duodenal, jejunal, and ileal segments; experiment: Intestinal absorptive permeability in Ussing chambers; type: in vitro ADME
# Protocol: [31]. Briefly, duodenum, jejunum, and ileum segments were dissected and washed as described earlier. The duodenal, jejunal, and ileal segments mounted on the inserts of the Ussing chambers ([…], Holliston, MA, USA) were acclimatized with HBSS for 30 min. […] Aliquots (400 μL) of HBSS in the basal side were withdrawn at 0, 30, 60, 90, and 120 min, and the withdrawn samples were compensated with an equal volume of fresh, preheated HBSS. Carbogen gas (5% CO2/ 95% O2) was bubbled into the Ussing chambers at a rate of 150 drops/min during the experiment. […] For the generation of Na^+ gradient, rat duodenal, jejunal, and ileal segments mounted on the inserts of the Ussing chamber were pretreated with Na^+ free media comprising 10 mM HEPES, 5 mM Tris, 140 mM choline chloride, 2 mM KCl, 1 mM CaCl2, and 1 mM MgCl2 (pH7.4) for 30 min. […] A 100 μL aliquot of samples was transferred to 96-well plates and the fluorescence of Lucifer yellow was read directly in a fluorescence plate reader using a 485 nm excitation and an emission filter of 535 nm.
# [3] = set-up: method as in PMID 26869413; details: cited from earlier work
# [4] = Pharmacokinetics of metformin after oral administration in rats; details: metformin 50 mg/kg PO, rat; for AUC(0-t): AUC24h
# Protocol: (§1) Aliquots of plasma (20 µL) and urine (50 µL) samples were vigorously mixed with 200 μL methanol containing 20 ng/mL propranolol (internal standard, IS) for 10 min.
# (§2) Samples were eluted through a Synergy Polar RP column (2.0 mm × 150 mm, 4 µm particle size, Phenomenex, Torrence, CA, USA) using a mobile phase that consisted of methanol and water (70:30, v/v) with 0.1% formic acid at a flow rate of 0.2 mL/min. […] Pharmacokinetic parameters were evaluated from plasma concentration versus time curves by using non-compartment analysis of WinNonlin (version 5.1; Pharsights, Cary, NC, USA).
# [5] = Pharmacokinetics of metformin after intravenous injection in rats; details: rat; for Ae24h (fraction of dose excreted in urine for 24 h as parent form) / AUC(0-t) / AUC(0-inf) / MRT: metformin […] IV; for AUC(0-t) / AUC(0-inf) / C0 / MRT: plasma, iv; for AUC(0-t): AUC24h; for C0: C0, metformin […] IV
# Protocol: An aliquot (50 µL) of urine samples was stored at −80 °C for the analysis.
# as §1, §2
# [6] = plasma, po, 50 mg/kg, 1WRA of RGE 1.5 g/kg/day
# [7] = plasma, po, 50 mg/kg, SA of RGE 1.5 g/kg
compound,measurement,setting,value
CC(C)=CCC[C@](C)(O[C@@H]1O[C@H](CO[C@@H]2OC[C@H](O)[C@H](O)[C@H]2O)[C@@H](O)[C@H](O)[C@H]1O)[C@H]1CC[C@]2(C)[C@@H]1[C@H](O)C[C@@H]1[C@@]3(C)CC[C@H](O[C@@H]4O[C@H](CO)[C@@H](O)[C@H](O)[C@H]4O[C@@H]4O[C@H](CO)[C@@H](O)[C@H](O)[C@H]4O)C(C)(C)[C@@H]3CC[C@]12C [Rb2],"Concentration in rat plasma, SA",[1]; 2 h after single oral administration of RGE (1.5 g/kg),6.3 ± 2.1 ng/mL
same,"Concentration in rat plasma, 1WRA",[1]; 24 h after last dose of 1-week repeated oral RGE (1.5 g/kg/day),29.4 ± 1.5 ng/mL
CO[C@@H]([C@H](O)[C@H](O)CO)[C@@H](O)C=O [3-O-methyl-D-glucose],"Intestinal absorptive permeability (Papp), effect of RGE","[2]; 50 µM, duodenum, jejunum, ileum, SA and 1WRA groups vs control",not affected
"CN(C)C(=N)N=C(N)N [metformin, Metformin]",Fraction of dose absorbed in the duodenum,[3],Approximately 20%
same,Fraction of dose absorbed in the jejunum and ileum,[3],60%
same,Ae24h (fraction of dose excreted in urine for 24 h as parent form),[4]; 1WRA of RGE 1.5 g/kg/day,66.29 ± 10.57 %
same,Tmax,[4]; 1WRA of RGE 1.5 g/kg/day,2.00 ± 0.01 h
same,Ae24h (fraction of dose excreted in urine for 24 h as parent form),[4]; Control,54.56 ± 3.26%
same,Ae24h (fraction of dose excreted in urine for 24 h as parent form),[4]; SA of RGE 1.5 g/kg,53.04 ± 3.69%
same,AUC(0-t),[4]; [6],57600 ± 4990 ng·h/mL
same,AUC(0-t),"[4]; plasma, po, 50 mg/kg, Control",44300 ± 8310 ng·h/mL
same,AUC(0-t),[4]; [7],45200 ± 11100 ng·h/mL
same,AUC(0-inf),[4]; [6],59000 ± 5170 ng·h/mL
same,AUC(0-inf),"[4]; plasma, po, 50 mg/kg, Control",44800 ± 8090 ng·h/mL
same,AUC(0-inf),[4]; [7],45700 ± 11200 ng·h/mL
same,Cmax,[4]; [6],9900 ± 1490 ng/mL
same,Cmax,"[4]; plasma, po, 50 mg/kg, Control",6310 ± 1680 ng/mL
same,Cmax,[4]; [7],6470 ± 2000 ng/mL
same,MRT,[4]; [6],4.64 ± 0.68 h
same,MRT,"[4]; plasma, po, 50 mg/kg, Control",4.85 ± 0.58 h
same,MRT,[4]; [7],4.69 ± 0.33 h
same,Tmax,"[4]; plasma, po, 50 mg/kg, Tmax, Control",2.4 ± 0.89 h
same,Ae24h (fraction of dose excreted in urine for 24 h as parent form),[5]; 1WRA of RGE 1.5 g/kg/day,79.56 ± 5.02%
same,Ae24h (fraction of dose excreted in urine for 24 h as parent form),[5]; Control,80.07 ± 4.93%
same,Ae24h (fraction of dose excreted in urine for 24 h as parent form),[5]; SA of RGE 1.5 g/kg,83.52 ± 5.72%
same,AUC(0-t),[5]; 1WRA of RGE 1.5 g/kg/day,980 ± 362 ng·h/mL
same,AUC(0-t),[5]; SA of RGE 1.5 g/kg,1050 ± 237 ng·h/mL
same,AUC(0-inf),[5]; 1WRA of RGE 1.5 g/kg/day,986 ± 364 ng·h/mL
same,AUC(0-inf),[5]; SA of RGE 1.5 g/kg,1050 ± 239 ng·h/mL
same,C0,[5]; 1WRA of RGE 1.5 g/kg/day,1760 ± 438 ng/mL
same,C0,[5]; SA of RGE 1.5 g/kg,1670 ± 623 ng/mL
same,MRT,[5]; 1WRA of RGE 1.5 g/kg/day,0.85 ± 0.35 h
same,MRT,[5]; SA of RGE 1.5 g/kg,0.81 ± 0.17 h
Lucifer yellow,"Intestinal absorptive permeability (Papp), effect of RGE",[2],not altered
CC(C)=CCC[C@](C)(O[C@@H]1O[C@H](CO[C@@H]2O[C@H](CO)[C@@H](O)[C@H](O)[C@H]2O)[C@@H](O)[C@H](O)[C@H]1O)[C@H]1CC[C@]2(C)[C@@H]1[C@H](O)C[C@@H]1[C@@]3(C)CC[C@H](O[C@@H]4O[C@H](CO)[C@@H](O)[C@H](O)[C@H]4O[C@@H]4O[C@H](CO)[C@@H](O)[C@H](O)[C@H]4O)C(C)(C)[C@@H]3CC[C@]12C [Rb1],concentration at 2 h,"[1]; rat, plasma, 2 h after single oral administration of RGE (1.5 g/kg), read-out: Concentration in rat plasma, SA",14.3 ± 2.7 ng/mL
same,concentration at 24 h,"[1]; rat, plasma, 24 h after last dose of 1-week repeated oral RGE (1.5 g/kg/day), read-out: Concentration in rat plasma, 1WRA",35.7 ± 1.9 ng/mL
